Measurements from US8952150B2, “Prostaglandin transporter inhibitors and uses thereof” (Albert Einstein College of Medicine of Yeshiva University, priority 2009, dated 2015).

Biological target: rat PGT (Rattus norvegicus (Rat), UniProt Q00910)
Experiment: [3H]PGE2 uptake inhibition in MDCK cells stably transfected with rat PGT (percent inhibition and IC50)
Type: cell-based
Conditions: for Inh (% of Ctl) 1 μM: 1 μM compound; for Inh (% of Ctl) 1 μM / Inh (% of Ctl) 10 μM / Inh (% of Ctl) 5 μM / Inh (% of Ctl) 0.1 μM / Inh (% of Ctl) 0.5 μM / Inh (% of Ctl) 2.5 μM: inhibition of [3H]PGE2 uptake; for Inh (% of Ctl) 10 μM: 10 μM compound; for Inh (% of Ctl) 5 μM: 5 μM compound; for Inh (% of Ctl) 0.1 μM: 0.1 μM compound; for Inh (% of Ctl) 0.5 μM: 0.5 μM compound; for Inh (% of Ctl) 2.5 μM: 2.5 μM compound; for IC50: [3H]PGE2 uptake, MDCK cells stably transfected with rat PGT
Outline: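 Rat PGT-transfected MDCK cells, on day 4 after seeding, took up [3H]PGE2 in Waymouth buffer at room temperature, with compound (EtOH stock diluted in buffer) added immediately before tracer. Intracellular radioactivity counted after lysis; percent inhibition versus vehicle, IC50 by fitting y=m1−m1*(m0/(m2+m0)).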

Row | SMILES | Inh (% of Ctl) 1 μM | Inh (% of Ctl) 10 μM | Inh (% of Ctl) 5 μM | Inh (% of Ctl) 0.1 μM | Inh (% of Ctl) 0.5 μM | Inh (% of Ctl) 2.5 μM | IC50 [µM]
1 | O=C(O)CCCCCCNc1nc(Nc2ccccc2)nc(Nc2ccc(O)cc2)n1 [compound 52] | 0.1 % of Ctl | 1.8 % of Ctl |  |  |  |  | 
2 | O=C(NCCOCCOCCNc1nc(Nc2ccccc2)nc(Nc2ccc(O)cc2)n1)c1ccccc1C(F)(F)F [compound 72] | 19.7 % of Ctl | 75.3 % of Ctl | 66.1 % of Ctl |  |  |  | 
3 | O=C(NCCOCCOCCNc1nc(Nc2ccccc2)nc(Nc2ccc(O)cc2)n1)c1ccc(Br)cc1 [compound 31] | 12.2 % of Ctl | 69.2 % of Ctl |  |  |  |  | 
4 | O=C(NCCOCCNc1nc(Nc2ccc(O)cc2)nc(Nc2ccc(C(=O)NCc3ccccc3)cc2)n1)c1ccncc1 [compound 135] | 49.6 % of Ctl |  |  | 13.2 % of Ctl | 28.4 % of Ctl |  | 
5 | O=C(NCCCCCCCNc1nc(Nc2ccccc2)nc(Nc2ccc(O)cc2)n1)c1ccccc1 [compound 63] | 11.0 % of Ctl | 44.1 % of Ctl |  |  |  |  | 
6 | O=C(NCCOCCOCCNc1nc(Nc2ccc(O)cc2)nc(Nc2ccc(C(=O)NCc3ccc4[nH]ccc4c3)cc2)n1)c1ccccc1 [compound 94] |  |  | 76.1 % of Ctl |  | 36.0 % of Ctl | 66.7 % of Ctl | 
7 | CC(=O)NCCOCCNc1nc(Nc2ccc(O)cc2)nc(Nc2ccc(C(=O)NCc3ccccc3)cc2)n1 [compound 140] | 10.9 % of Ctl |  |  | 11.5 % of Ctl | 4.5 % of Ctl |  | 
8 | O=C(NCCOCCOCCNc1nc(Nc2ccc(O)cc2)nc(Nc2ccc(C(=O)NCc3c(F)cccc3F)cc2)n1)c1ccccc1 [compound 128] | 82.2 % of Ctl |  |  | 36.6 % of Ctl | 71.8 % of Ctl |  | 
9 | O=C(O)c1ccc(CNC(=O)c2ccc(Nc3nc(NCCOCCOCCNC(=O)c4ccccc4)nc(Nc4ccc(O)cc4)n3)cc2)cc1 [compound 112] |  |  | 49.4 % of Ctl |  | 17.5 % of Ctl | 32.2 % of Ctl | 
10 | O=C(NCCOCCOCCNc1nc(Nc2ccc(O)cc2)nc(Nc2ccc3c(c2)C(=O)NC3=O)n1)c1ccccc1 [compound 77] |  |  | 23.2 % of Ctl |  | 1.8 % of Ctl | 4.3 % of Ctl | 
11 | O=C(NCCCCCNc1nc(Nc2ccccc2)nc(Nc2ccc(O)cc2)n1)c1ccccc1 [compound 85] | 7.6 % of Ctl | 49.6 % of Ctl | 12.2 % of Ctl |  |  |  | 
12 | O=C(NCc1ccccc1)c1ccc(Nc2nc(NCCOCCNCc3ccccc3)nc(Nc3ccc(O)cc3)n2)cc1 [compound 141] | 43.5 % of Ctl |  |  | 12.7 % of Ctl | 22.0 % of Ctl |  | 
13 | COc1cccc(CNC(=O)c2ccc(Nc3nc(NCCOCCOCCNC(=O)c4ccccc4)nc(Nc4ccc(O)cc4)n3)cc2)c1 [compound 88] |  |  | 88.2 % of Ctl | 61.8 % of Ctl | 67.6 % of Ctl | 82.6 % of Ctl | 0.82
14 | O=C(NCCOCCOCCNc1nc(NCCO)nc(Nc2ccc(O)cc2)n1)c1ccccc1 [compound 10] |  |  | 15.0 % of Ctl |  | 1.4 % of Ctl |  | 
15 | O=C(CCCCCCNc1nc(Nc2ccccc2)nc(Nc2ccc(O)cc2)n1)Nc1ccccc1 [compound 96] | 8.6 % of Ctl | 51.9 % of Ctl | 23.9 % of Ctl |  |  |  | 
16 | O=C(NCCOCCOCCNc1nc(Nc2ccccc2)nc(Nc2ccc(O)c(Cl)c2)n1)c1ccccc1 [compound 56] | 38.0 % of Ctl | 80.5 % of Ctl |  |  |  |  | 
17 | CCCCCCNC(=O)c1ccc(Nc2nc(NCCOCCOCCNC(=O)c3ccccc3)nc(Nc3ccc(O)cc3)n2)cc1 [compound 44] | 65.0 % of Ctl | 77.5 % of Ctl |  |  |  |  | 0.76
18 | COC(=O)[C@H](NC(=O)c1ccc(Nc2nc(NCCOCCOCCNC(=O)c3ccccc3)nc(Nc3ccc(O)cc3)n2)cc1)c1ccccc1 [compound 73] |  |  | 75.3 % of Ctl |  |  | 38.9 % of Ctl | 

Row | SMILES | Inh (% of Ctl) 1 μM | Inh (% of Ctl) 10 μM | Inh (% of Ctl) 5 μM | Inh (% of Ctl) 0.1 μM | Inh (% of Ctl) 0.5 μM | Inh (% of Ctl) 2.5 μM | IC50 [µM]
19 | O=C(O)c1ccc(Nc2nc(NCCOCCOCCNC(=O)c3ccccc3)nc(Nc3ccc(O)cc3)n2)cc1 [compound 13] |  |  | 19.3 % of Ctl |  | 19.2 % of Ctl |  | 
20 | O=C(NCCOCCOCCNc1nc(Nc2ccc(O)cc2)nc(Nc2ccc(C(=O)NCc3cccc4ccccc34)cc2)n1)c1ccccc1 [compound 89] |  |  | 86.0 % of Ctl |  | 33.8 % of Ctl | 76.5 % of Ctl | 
21 | COc1ccc(Nc2nc(NCCOCCOCCNC(=O)c3ccccc3)nc(Nc3ccccc3)n2)cc1 [compound 1] |  |  | 8.5 % of Ctl |  | 9.6 % of Ctl |  | 
22 | O=C(NCCOCCOCCNc1nc(Nc2ccccc2)nc(Nc2ccc(C(=O)NCc3ccccc3)cc2)n1)c1ccccc1 [compound 116] |  |  |  | 36.4 % of Ctl | 59.4 % of Ctl |  | 
23 | O=C(NCCOCCOCCNc1nc(Nc2ccc(O)cc2)nc(Nc2ccc(C(=O)NCc3ccccn3)cc2)n1)c1ccccc1 [compound 70] |  |  | 84.0 % of Ctl |  | 21.2 % of Ctl |  | 1.05
24 | Cc1ccc(CNC(=O)c2ccc(Nc3nc(NCCOCCOCCNC(=O)c4ccccc4)nc(Nc4ccc(O)cc4)n3)cc2)cc1 [compound 102] |  |  | 88.0 % of Ctl |  | 41.9 % of Ctl | 65.7 % of Ctl | 
25 | CCCCCCNc1nc(Nc2ccccc2)nc(Nc2ccc(O)cc2)n1 [compound 55] | 12.7 % of Ctl | 26.1 % of Ctl |  |  |  |  | 
26 | O=C(NCCOCCOCCNc1nc(Nc2ccc(O)cc2)nc(Nc2ccc(C(=O)NCCc3ccccc3)cc2)n1)c1ccccc1 [compound 111] |  |  | 93.2 % of Ctl | 52.2 % of Ctl | 59.1 % of Ctl | 81.5 % of Ctl | 
27 | O=C(NCCOCCOCCNc1nc(NCCOCCOCCNC(=O)c2ccccc2)nc(Nc2ccc(O)cc2)n1)c1ccccc1 [compound 151] | 8.4 % of Ctl |  |  |  | 0.7 % of Ctl |  | 
28 | COC(=O)COCCOCCNC(=O)c1ccc(Nc2nc(NCCOCCOCCNC(=O)c3ccccc3)nc(Nc3ccc(O)cc3)n2)cc1 [compound 47] | 22.6 % of Ctl | 76.5 % of Ctl |  |  |  |  | 
29 | N[C@@H](C(=O)NCCOCCNc1nc(Nc2ccc(O)cc2)nc(Nc2ccc(C(=O)NCc3ccccc3)cc2)n1)c1ccccc1 [compound 132] | 32.4 % of Ctl |  |  | 15.0 % of Ctl | 22.1 % of Ctl |  | 
30 | O=C(NCc1ccccc1)c1ccc(Nc2nc(NCCOCCNS(=O)(=O)c3ccccc3)nc(Nc3ccc(O)cc3)n2)cc1 [compound 138] | 34.5 % of Ctl |  |  | 17.8 % of Ctl | 22.5 % of Ctl |  | 
31 | CCCCCCNc1nc(Nc2ccc(O)cc2)nc(Nc2ccc(C(=O)NCc3ccccc3)cc2)n1 [compound 120] |  |  |  | 11.2 % of Ctl | 29.1 % of Ctl |  | 
32 | O=C(NCCO)c1ccc(Nc2nc(NCCOCCOCCNC(=O)c3ccccc3)nc(Nc3ccc(O)cc3)n2)cc1 [compound 21] |  |  | 68.2 % of Ctl |  | 15.7 % of Ctl |  | 
33 | COc1ccc(C(=O)NCCOCCNc2nc(Nc3ccc(O)cc3)nc(Nc3ccc(C(=O)NCc4ccccc4)cc3)n2)cc1 [compound 137] | 75.6 % of Ctl |  |  | 42.0 % of Ctl | 64.9 % of Ctl |  | 0.0367
34 | COc1cc(Nc2nc(NCCOCCOCCNC(=O)c3ccccc3)nc(Nc3ccc(O)cc3)n2)ccc1C(=O)NCc1ccccc1 [compound 81] |  |  | 80.1 % of Ctl |  | 0.4 % of Ctl | 16.2 % of Ctl | 
35 | O=C(NCc1ccc(F)cc1)c1ccc(Nc2nc(Nc3ccc(O)cc3)nc(Nc3ccc(O)cc3)n2)cc1 [compound 145] | 6.9 % of Ctl |  |  | 7.1 % of Ctl | 3.1 % of Ctl |  | 
36 | O=C(NCCOCCOCCNc1nc(Nc2ccc(O)cc2)nc(Nc2ccc(C(=O)OCc3ccccc3)cc2)n1)c1ccccc1 [compound 69] |  |  | 83.2 % of Ctl |  | 24.9 % of Ctl |  | 0.89
